The source of these data is patent US7713994B2 (Wyeth LLC, priority 2005, dated 2010).

One may read the IC50 as the concentration that inhibits the measured activity by half.

In assay [1] the target is T1, cyclin B/CDK1 enzyme (Homo sapiens, UniProt P06493).
T1 construct: purchased New England BioLabs; host or cells: Sf9 insect cells, recombinant baculovirus
Put plainly: CDK1 ELISA kinase assay (phospho-Rb ser 795 detection). Type of assay: biochemical. The note with it: In Vitro Enzyme Assay, cyclin B/CDK1, read-out: CDK1 IC50. Put shortly: (§1)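 Partially purified Sf9-expressed cyclin D1/CDK4, cyclin E/CDK2 or cyclin B/CDK1 phosphorylated plate-bound GST-Rb C-terminal fragment with 200 μM ATP at 30° C for 1 h.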
Background: An ELISA detects its analyte on a solid surface through an enzyme-linked reagent.

Assay [2] deals with BT474. Put plainly: Cytotoxicity assay (SRB), BT474. The format is cell-based. To be noted: Homo sapiens, BT-474, 144 h, BT474 cells, 6 days, SRB; read-out: In Vitro Cellular Activity IC50 BT474. Put shortly:
(§2)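 Plate cells, let them attach overnight, add compound dilutions in RPMI 1640/5% FBS, and incubate 3 days (BT474 6 days). Then fix with TCA, stain with SRB, dissolve the dye in Tris and read at 540 nm.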

The test system of assay [3] is MCF-7. Put plainly: Cytotoxicity assay (SRB), MCF-7. The format is cell-based. The note with it: Homo sapiens, MCF7, 72 h, MCF-7 cells, 3 days, SRB; read-out: In Vitro Cellular Activity IC50 MCF-7. Put shortly:
as §2

Assay [4] concerns HCT-116. Put plainly: Cytotoxicity assay (SRB), HCT-116. The note with it: Homo sapiens, HCT-116, 72 h, HCT116 cells, 3 days, SRB; read-out: In Vitro Cellular Activity IC50 HCT116. Type of assay: cell-based. Put shortly: as §2
For assay [5], the target named is T2, cyclin D1/cdk 4 enzyme (Homo sapiens, UniProt P11802).
T2 construct: made in house; host or cells: Sf9 insect cells, recombinant baculovirus
T2 sequence (P11802 whole entry, species assumed): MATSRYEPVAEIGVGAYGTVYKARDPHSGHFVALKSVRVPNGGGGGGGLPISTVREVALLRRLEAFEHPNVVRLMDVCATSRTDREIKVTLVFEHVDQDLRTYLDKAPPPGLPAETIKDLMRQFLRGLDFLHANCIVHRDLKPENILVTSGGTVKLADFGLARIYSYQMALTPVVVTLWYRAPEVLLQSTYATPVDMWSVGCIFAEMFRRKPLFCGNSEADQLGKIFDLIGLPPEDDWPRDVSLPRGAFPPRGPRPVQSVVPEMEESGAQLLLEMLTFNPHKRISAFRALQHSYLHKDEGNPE
T2 sequence (P24385 whole entry partner, species assumed): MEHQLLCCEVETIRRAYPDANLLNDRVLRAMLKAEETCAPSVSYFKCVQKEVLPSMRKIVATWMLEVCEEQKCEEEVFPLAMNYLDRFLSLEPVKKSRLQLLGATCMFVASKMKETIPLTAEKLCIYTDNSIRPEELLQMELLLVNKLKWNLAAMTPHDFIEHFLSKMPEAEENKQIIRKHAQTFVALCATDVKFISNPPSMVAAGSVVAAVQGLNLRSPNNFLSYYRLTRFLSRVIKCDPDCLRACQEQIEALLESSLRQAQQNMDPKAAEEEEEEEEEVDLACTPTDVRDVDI
Put plainly: CDK4 ELISA kinase assay (phospho-Rb ser 795 detection). Type of assay: biochemical. To be noted: In Vitro Enzyme Assay, cyclin D1/cdk 4, read-out: CDK4 IC50. In outline: as §1

In assay [6] the test system is LoVo. Put plainly: Cytotoxicity assay (SRB), LoVo. The format is cell-based. The note with it: Homo sapiens, LoVo, 72 h, LoVo cells, 3 days, SRB; read-out: In Vitro Cellular Activity IC50 LOVO. Put shortly: as §2
Assay [7] concerns the target T3, cyclin E/CDK2 enzyme (Homo sapiens, UniProt P24941).
T3 construct: made in house; host or cells: Sf9 insect cells, recombinant baculovirus
Put plainly: CDK2 ELISA kinase assay (phospho-Rb ser 795 detection). Type of assay: biochemical. To be noted: In Vitro Enzyme Assay, cyclin E/CDK2, read-out: CDK2 IC50. In outline: as §1

The structures appear in SMILES notation. Where only a bound is given, the exact number is not on record here.

T1 sequence (P06493 whole entry): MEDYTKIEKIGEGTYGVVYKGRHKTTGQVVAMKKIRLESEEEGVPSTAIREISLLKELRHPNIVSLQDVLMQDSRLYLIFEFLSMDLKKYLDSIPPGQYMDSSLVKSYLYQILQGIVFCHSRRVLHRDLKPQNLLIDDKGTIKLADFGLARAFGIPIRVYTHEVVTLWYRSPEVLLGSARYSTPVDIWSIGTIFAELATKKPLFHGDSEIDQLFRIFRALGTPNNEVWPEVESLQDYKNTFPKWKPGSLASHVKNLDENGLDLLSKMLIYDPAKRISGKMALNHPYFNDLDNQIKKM
T1 sequence (P14635 whole entry partner): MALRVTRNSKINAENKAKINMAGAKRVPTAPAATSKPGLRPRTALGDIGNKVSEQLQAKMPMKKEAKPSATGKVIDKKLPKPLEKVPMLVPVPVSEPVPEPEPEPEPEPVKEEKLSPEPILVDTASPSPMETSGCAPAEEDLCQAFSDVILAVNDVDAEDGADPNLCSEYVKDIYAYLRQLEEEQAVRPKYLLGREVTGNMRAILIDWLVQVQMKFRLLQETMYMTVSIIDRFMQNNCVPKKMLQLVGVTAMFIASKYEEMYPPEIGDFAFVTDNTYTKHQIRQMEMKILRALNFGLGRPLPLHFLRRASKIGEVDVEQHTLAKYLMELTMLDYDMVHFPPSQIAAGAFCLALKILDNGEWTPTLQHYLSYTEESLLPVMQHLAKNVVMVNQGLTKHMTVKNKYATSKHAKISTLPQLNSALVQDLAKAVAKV

For the compound `O=C1NC(=O)c2ccc(-c3ccc(Cl)cc3)cc2C1=CNCc1ccc(O)c(O)c1` [Example 778, 6-(4-Chloro-phenyl)-4-[(3,4-dihydroxy-benzylamino)-methylene]-4H-isoquinoline-1,3-dione], the IC50 in assay [1] amounted to 27.7 µM; in assay [2], 27.3 µM; in assay [3], 10.3 µM; in assay [4] it was 11.9 µM; in assay [5], 120 nM; in assay [6], 9.6 µM. The IC50 in assay [7] was 5.6 µM.
In the case of `O=C1NC(=O)c2ccc(-c3cccc(Cl)c3)cc2C1=CNCc1ccc(O)c(O)c1` [Example 779, 6-(3-Chloro-phenyl)-4-[(3,4-dihydroxy-benzylamino)-methylene]-4H-isoquinoline-1,3-dione], the IC50 in assay [1] is > 50 µM; in assay [2], 20.3 µM; in assay [3], 12.7 µM; in assay [4], 15 µM; in assay [5] it was 740 nM; in assay [6], 14.1 µM. Moreover, the IC50 in assay [7] came to 31.1 µM.
Turning to `O=C1NC(=O)c2ccc(-c3ccccc3Cl)cc2C1=CNCc1ccc(O)c(O)c1` [Example 780, 6-(2-Chloro-phenyl)-4-[(3,4-dihydroxy-benzylamino)-methylene]-4H-isoquinoline-1,3-dione], the 50% inhibitory concentration (IC50) in assay [1] was found to be 23.1 µM; in assay [2] it was 17.7 µM; in assay [3], 18.9 µM; in assay [4] it was 14.4 µM; in assay [5] it was 670 nM; in assay [6], 18.2 µM. Also, the IC50 in assay [7] was 3.8 µM.
In the case of `Cc1ccc(-c2ccc3c(c2)C(=CNCc2ccc(O)c(O)c2)C(=O)NC3=O)cc1` [Example 781, 4-[(3,4-Dihydroxy-benzylamino)-methylene]-6-p-tolyl-4H-isoquinoline-1,3-dione], the IC50 in assay [1] was > 50 µM; in assay [2], 23.3 µM; in assay [3] it was 12.7 µM; in assay [4], 14.4 µM; in assay [5], 740 nM; in assay [6], 14 µM. For the same compound, the 50% inhibitory concentration (IC50) in assay [7] is 27.7 µM.
With `N#Cc1ccc(-c2ccc3c(c2)C(=CNCc2ccc(O)c(O)c2)C(=O)NC3=O)cc1` [Example 784, 4-{4-[(3,4-Dihydroxy-benzylamino)-methylene]-1,3-dioxo-1,2,3,4-tetrahydro-isoquinolin-6-yl}-benzonitrile], the IC50 was 27.7 µM in assay [1]; > 50 µM in assay [2]; 13.8 µM in assay [3]; 8.7 µM in assay [4]; 60 nM in assay [5]; 35.1 µM in assay [6]. The half-inhibitory concentration (IC50) in assay [7] was 7.3 µM.
Take `N#Cc1cccc(-c2ccc3c(c2)C(=CNCc2ccc(O)c(O)c2)C(=O)NC3=O)c1` [Example 785, 3-{4-[(3,4-Dihydroxy-benzylamino)-methylene]-1,3-dioxo-1,2,3,4-tetrahydro-isoquinolin-6-yl}-benzonitrile]: the IC50 in assay [1] was > 50 µM; in assay [2], > 50 µM; in assay [3], 46.2 µM; in assay [4], > 50 µM; in assay [5], 1200 nM; in assay [6], > 50 µM. The IC50 in assay [7] worked out at 38 µM.
For the compound `CSc1ccc(-c2ccc3c(c2)C(=CNCc2ccc(O)c(O)c2)C(=O)NC3=O)cc1` [Example 792, 4-[(3,4-Dihydroxy-benzylamino)-methylene]-6-(4-methylsulfanyl-phenyl)-4H-isoquinoline-1,3-dione], the half-inhibitory concentration (IC50) in assay [1] is > 50 µM; in assay [2], 41 µM; in assay [3] it was 13.1 µM; in assay [4], 14.7 µM; in assay [5] it was 470 nM; in assay [6], 15.6 µM. The 50% inhibitory concentration (IC50) in assay [7] was found to be 22.6 µM.
Consider `CN1CCN(c2ccc(NC=C3C(=O)NC(=O)c4ccc(C=CCCCO)cc43)cc2)CC1` [Example 797, 6-(5-Hydroxy-pent-1-enyl)-4-{[4-(4-methyl-piperazin-1-yl)-phenylamino]-methylene}-4H-isoquinoline-1,3-dione], for which the IC50 in assay [1] is > 50 µM; in assay [2], 19.3 µM; in assay [3], 6.7 µM; in assay [4], 6.5 µM; in assay [5], 900 nM; in assay [6], 6.3 µM. Besides, the IC50 in assay [7] was > 50 µM.
